Measured values from ChEMBL document CHEMBL1201862, “PubChem BioAssay data set” (2004).
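Results reflect a 48-hour exposure of cells in 96-well plates to compound at five concentrations. Here, GI50 denotes the concentration required for 50% inhibition of growth.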 Active and inactive are the calls of the source. No stated cut-off is given here; in the data, active = GI50 up to about 1.1 µM and inactive = higher.

How the values were obtained:
Assay in all cases: inhibition of tumour cell growth, NCI panel, 48 h
786-0 = system: 786-0
A498 = system: A498
A549 = system: A549
ACHN = system: ACHN
BT-549 = system: BT-549
CAKI-1 = system: CAKI-1
CCRF-CEM = system: CCRF-CEM
COLO 205 = system: COLO 205
DU-145 = system: DU-145
EKVX = system: EKVX
HCC 2998 = system: HCC 2998
HCT-116 = system: HCT-116
HCT-15 = system: HCT-15
HL-60 = system: HL-60
HOP-62 = system: HOP-62
HOP-92 = system: HOP-92
HT-29 = system: HT-29
Hs-578T = system: Hs-578T
IGROV-1 = system: IGROV-1
K562 = system: K562
KM12 = system: KM12
LOX IMVI = system: LOX IMVI
M14 = system: M14
MCF7 = system: MCF7
MDA-MB-231 = system: MDA-MB-231
MDA-MB-435 = system: MDA-MB-435
MDA-N = system: MDA-N
MOLT-4 = system: MOLT-4
Malme-3M = system: Malme-3M
NCI-H226 = system: NCI-H226
NCI-H23 = system: NCI-H23
NCI-H460 = system: NCI-H460
NCI-H522 = system: NCI-H522
NCI/ADR-RES = system: NCI/ADR-RES
OVCAR-3 = system: OVCAR-3
OVCAR-4 = system: OVCAR-4
OVCAR-5 = system: OVCAR-5
OVCAR-8 = system: OVCAR-8
PC-3 = system: PC-3
RPMI-8226 = system: RPMI-8226
RXF 393 = system: RXF 393
SF-268 = system: SF-268
SF-295 = system: SF-295
SF-539 = system: SF-539
SK-MEL-28 = system: SK-MEL-28
SK-MEL-2 = system: SK-MEL-2
SK-MEL-5 = system: SK-MEL-5
SK-OV-3 = system: SK-OV-3
SN12C = system: SN12C
SNB-19 = system: SNB-19
SNB-75 = system: SNB-75
SR = system: SR
SW-620 = system: SW-620
T47D = system: T47D
TK-10 = system: TK-10
U-251 = system: U-251
UACC-257 = system: UACC-257
UACC-62 = system: UACC-62
UO-31 = system: UO-31

c1c2c(cc3c1OCO3)-c1cc3ccc4c(c3c[n+]1CC2)OCO4 [COPTISINE CHLORIDE]
GI50 (786-0): 4.2 µM (inactive) | GI50 (A498): 4.73 µM (inactive) | GI50 (A549): 4.44 µM (inactive) | GI50 (ACHN): 2.5 µM (inactive) | GI50 (BT-549): > 5.85 µM (inactive) | GI50 (CAKI-1): > 12.5 µM (inactive) | GI50 (CCRF-CEM): 764 nM (active) | GI50 (COLO 205): 3.56 µM (inactive) | GI50 (DU-145): 1.3 µM (inactive) | GI50 (EKVX): 7.71 µM (inactive) | GI50 (HCC 2998): 3.85 µM (inactive) | GI50 (HCT-116): 447 nM (active) | GI50 (HCT-15): 638 nM | GI50 (HL-60): 406 nM (active) | GI50 (HOP-62): 1.4 µM (inactive) | GI50 (HOP-92): 5.57 µM (inactive) | GI50 (HT-29): 5.65 µM (inactive) | GI50 (Hs-578T): 1.38 µM (inactive) | GI50 (IGROV-1): 2.04 µM (inactive) | GI50 (K562): 486 nM (active) | GI50 (KM12): 925 nM (active) | GI50 (LOX IMVI): 1.01 µM (active) | GI50 (M14): 1 µM (active) | GI50 (MCF7): 1.24 µM (inactive) | GI50 (MDA-MB-231): 1.13 µM (inactive) | GI50 (MDA-MB-435): 308 nM (active) | GI50 (MDA-N): 299 nM (active) | GI50 (MOLT-4): 1.29 µM (inactive) | GI50 (Malme-3M): 259 nM (active) | GI50 (NCI-H226): 1.92 µM (inactive) | GI50 (NCI-H23): 815 nM (active) | GI50 (NCI-H460): 530 nM (active) | GI50 (NCI-H522): 311 nM (active) | GI50 (NCI/ADR-RES): 348 nM (active) | GI50 (OVCAR-3): 798 nM (active) | GI50 (OVCAR-4): 5.09 µM (inactive) | GI50 (OVCAR-5): > 12.5 µM (inactive) | GI50 (OVCAR-8): 1.16 µM (inactive) | GI50 (PC-3): 944 nM (active) | GI50 (RPMI-8226): 711 nM (active) | GI50 (RXF 393): 1.99 µM (inactive) | GI50 (SF-268): 2.36 µM (inactive) | GI50 (SF-295): 927 nM (active) | GI50 (SF-539): 887 nM (active) | GI50 (SK-MEL-28): 1.2 µM (inactive) | GI50 (SK-MEL-2): 555 nM (active) | GI50 (SK-MEL-5): 587 nM (active) | GI50 (SK-OV-3): 3.3 µM (inactive) | GI50 (SN12C): 2.09 µM (inactive) | GI50 (SNB-19): 1.22 µM (inactive) | GI50 (SNB-75): 1.28 µM (inactive) | GI50 (SR): 486 nM (active) | GI50 (SW-620): 462 nM (active) | GI50 (T47D): 3.13 µM (inactive) | GI50 (TK-10): > 12.5 µM (inactive) | GI50 (U-251): 935 nM (active) | GI50 (UACC-257): 1.95 µM (inactive) | GI50 (UACC-62): 891 nM (active) | GI50 (UO-31): 857 nM (active)
